According to patent US20180310564A1, “Mesoionic Compound” (Nippon Kayaku Kabushiki Kaisha, priority 2015, published 2018):
Structures can show the parent of a compound that is named as a salt.

Key:
Type in all cases: in vivo
[1] = tested on: Cotton Aphid (Aphis gossypii); experiment: Test (foliar spraying) for controlling cotton aphid; details: 120 h, 5 days after treatment; for mortality at 200 ppm: foliar spraying on cucumber leaf
Experimental: A cucumber leaf cut to a diameter of 3.5 cm was placed on cotton wool moistened with water. Two adult cotton aphids were released there for offspring for 24 hours and the adult insects were then removed. […] After air-drying, the sample with cotton wool was placed in a plastic cup, which was covered with a lid and kept in a chamber at a constant temperature of 25° C. for rearing.

[2] = tested on: Brown Planthopper (Nilaparvata lugens); experiment: Test (foliar dipping) for controlling brown planthopper; details: 120 h, rice seedlings dipped, 5 days after treatment; for mortality at 200 ppm: third instar larvae
Experimental: […] After air-drying, the rice seedlings held with urethane in a glass cylinder having an inner diameter of 4.5 cm and a length of 14 cm were set up in a plastic cup containing 40 mL of water. Larvae of brown planthoppers in the third instar larva were released there. The cylinder was covered with a lid of medicine paper and kept in a chamber at a constant temperature of 25° C. for rearing.

[3] = tested on: Southern Yellow thrips (Thrips palmi); experiment: Test (foliar spraying) for controlling southern yellow thrips; details: 3 days after treatment; for Mortality of Thrips palmi (%): foliar spraying; for mortality at 200 ppm: 72 h, foliar spraying on cucumber leaf, first instar larvae
Experimental: A cucumber leaf cut to a diameter of 1.5 cm was placed on cotton wool moistened with water. […] After air-drying, 5 larvae of southern yellow thrips in the first instar larva were released there. The sample with cotton wool was placed in a plastic cup, which was covered with a lid and kept in a chamber at a constant temperature of 25° C. for rearing.

[4] = tested on: Brown Planthopper (Nilaparvata lugens); experiment: Test (root dipping) for controlling brown planthopper; details: 5 days after treatment
Experimental: (§1) Ten sampled rice seedlings held with urethane in a glass cylinder having an inner diameter of 4.5 cm and a length of 14 cm were set up in a plastic cup containing 40 mL of chemical solution diluted to a desired concentration. After 2 days, 10 larvae of brown planthoppers in the third instar larva were released in the glass cylinder. The glass cylinder was covered with a lid of medicine paper and kept in a chamber at a constant temperature of 25° C. for rearing.

[5] = tested on: Rice Leaf Beetle (Oulema oryzae); experiment: Test (root dipping) for controlling rice leaf beetle; details: 1.6 ppm, root dipping of rice seedlings, late instar larvae released after 2 days, 4 days after treatment
Experimental: as §1, with “4” for “10”, “rice leaf beetle” for “brown planthoppers”, “late” for “third”

[6] = tested on: Rice Stem Borer (Chilo suppressalis); experiment: Test (pot test) for controlling rice stem borer; details: 14 days after treatment
Experimental: The roots of five sampled rice seedlings were washed with water. The wettable powder prepared in accordance with Formulation Example 2 described above was wrapped in the roots to be planted in a Wagner pot of 1/10000 a. After 4 days from the treatment, a total of […] of rice stem borer were released per strain and reared in a plastic greenhouse with a room temperature set at 25° C. On 14 days after the treatment, the ratio of browning stem of seedlings for each strain and the ratio to untreated ones were calculated. Double system.

[7] = tested on: Inedorooimushi (Oulema oryzae); experiment: Test (pot test) for controlling inedorooimushi; details: larvae released 20 days after treatment, 2 days after release
Experimental: The roots of five sampled rice seedlings were washed with water. The wettable powder prepared in accordance with Formulation Example 2 described above was wrapped in the roots to be planted in a Wagner pot of 1/10000 a. After 20 days from the treatment, 3 larvae of inedorooimushi in the late instar larva were released per strain and reared in a plastic greenhouse with a room temperature set at 25° C. On 2 days after the releasing of the insects, the mortality of the insect was calculated.

[8] = tested on: Brown Planthopper (Nilaparvata lugens); experiment: Residual effect test (field experiment) for brown planthopper
Experimental: The roots of five sampled rice seedlings were washed with water. Subsequently, 25 mg of the wettable powder prepared in accordance with Formulation Example 2 described above was wrapped in the roots. Each strain was made from the five seedlings. In outdoor artificial paddy fields made from wooden frames having a size of 60 cm by 90 cm, 10 strains were planted, respectively. The artificial paddy field was shielded by an insect screen with a mesh size of 1 mm, so that invasion of harmful insects from the outside was prevented. Into the test system, 40 to 100 adult brown planthoppers were released at fixed intervals so as to cause damage to the rice. On 16 to 51 days after the treatment, the numbers of surviving insects and dead insects were measured to calculate the density index. The density index was obtained from the following expression.

[9] = tested on: Brown Winged Green Stink Bug (Plautia stali); experiment: Test (greenhouse test) for controlling brown winged green stink bug; details: 100 ppm sprayed on apple fruit
Experimental: Using a commercially available hand spray, a chemical solution diluted to a concentration of 100 ppm was sprayed onto an apple fruit (cultivar: Fuji). After air-drying, the apple fruit was placed in a plastic cup, which was allowed to stand still for a specified number of […] in a plastic greenhouse with a room temperature set at 25° C. and with the natural light shining thereon. On 7 days after the treatment, 5 adult brown winged green stink bugs (without distinction between male and female) were released onto the treated fruit. On 4 days after the release of insects, the numbers of death and abnormality were observed and recorded. Triple system. Also, the fruit after examination was immersed in an acidic 0.5% fuchsine solution for 30 minutes, and then washed with water to measure the total number of sapping scars.

[10] = After 16 days, 25 mg wettable powder (Formulation Example 2) at roots per strain, outdoor artificial paddy field
[11] = After 23 days, 25 mg wettable powder at roots per strain, artificial paddy field
[12] = After 30 days, 25 mg wettable powder at roots per strain, artificial paddy field
[13] = After 37 days, 25 mg wettable powder at roots per strain, artificial paddy field
[14] = After 44 days, 25 mg wettable powder at roots per strain, artificial paddy field
[15] = After 51 days, 25 mg wettable powder at roots per strain, artificial paddy field
[16] = 5 adults released 7 days after treatment, triple system, 4 days after release

Compound: COc1cccc(-c2c([O-])[n+](CCC#N)c3ccccn3c2=O)c1 [Compound 18, 1-(2-cyanoethyl)-2-hydroxy-3-(3-methoxyphenyl)-4-oxo-4H-pyrido[1,2-a]pyrimidinium inner salt]
- mortality at 200 ppm [1]: ≥ 80%
- mortality at 0.01 ppm [2]: 10%
- mortality at 0.02 ppm [2]: 20%
- mortality at 0.05 ppm [2]: 100%
- mortality at 200 ppm [2]: ≥ 80%
- Mortality of Thrips palmi (%) ([3]; 3.1 ppm): 100%
- Mortality of Thrips palmi (%) ([3]; 12.5 ppm): 100%
- Mortality of Thrips palmi (%) ([3]; 50 ppm): 100%
- mortality at 200 ppm [3]: ≥ 80%

Compound: CCOc1cccc(-c2c([O-])[n+](CCC#N)c3ccccn3c2=O)c1 [Compound 21, 1-(2-cyanoethyl)-3-(3-ethoxyphenyl)-2-hydroxy-4-oxo-4H-pyrido[1,2-a]pyrimidinium inner salt]
- mortality at 200 ppm [1]: ≥ 80%
- mortality at 0.01 ppm [2]: 10%
- mortality at 0.02 ppm [2]: 70%
- mortality at 0.05 ppm [2]: 80%
- mortality at 200 ppm [2]: ≥ 80%
- mortality at 200 ppm [3]: ≥ 80%

Compound: O=c1c(-c2cccc(C(F)(F)F)c2)c([O-])[n+](Cc2cncnc2)c2ccccn12 [Triflumezopyrim, reference compound]
- mortality at 0.2 ppm ([1]; 0.20 ppm, foliar spraying): 0%
- mortality at 0.39 ppm ([1]; 0.39 ppm, foliar spraying): 60%
- mortality at 0.78 ppm ([1]; 0.78 ppm, foliar spraying): 85%
- mortality at 0.1 ppm ([2]; 0.1 ppm): 10%
- mortality at 0.2 ppm ([2]; 0.2 ppm): 70%
- Mortality of Thrips palmi (%) ([3]; 12.5 ppm): 0%
- Mortality of Thrips palmi (%) ([3]; 50 ppm): 60%
- mortality at 200 ppm [3]: 100%
- mortality at 0.05 ppm ([4]; 120 h, 0.05 ppm, root dipping): 0%
- mortality at 0.1 ppm ([4]; 120 h, 0.1 ppm, root dipping): 70%
- mortality at 0.2 ppm ([4]; 120 h, 0.2 ppm, root dipping): 70%
- mortality at 0.4 ppm ([4]; 120 h, 0.4 ppm, root dipping): 70%
- mortality at 0.8 ppm ([4]; 120 h, 0.8 ppm, root dipping): 100%
- mortality at 1.6 ppm [5]: 0%
- Browning stem ratio (%) ([6]; 500 g/ha as wettable powder (Formulation Example 2) at rice roots, hatchlings released after 4 days): 40%
- Ratio to untreated (%) ([6]; browning stem ratio relative to untreated, 500 g/ha): 49%
- mortality at 125 g/ha ([7]; 125 g/ha): 16.7%
- mortality at 250 g/ha ([7]; 250 g/ha): 50%
- mortality at 500 g/ha ([7]; 500 g/ha as wettable powder at rice roots): 66.7%
- Density index of Nilaparvata lugens [8, 10]: 2.5
- Density index of Nilaparvata lugens [8, 11]: 5.4
- Density index of Nilaparvata lugens [8, 12]: 45.1
- Density index of Nilaparvata lugens [8, 13]: 56.7
- Density index of Nilaparvata lugens [8, 14]: 63.9
- Density index of Nilaparvata lugens [8, 15]: 92.2
- Number of abnormal insects [9, 16]: 5
- Number of dead insects [9, 16]: 4
- Number of normal insects [9, 16]: 6
- Total number of sheaths formed by stylet insertion ([9]; fruit stained with fuchsine after examination): 10
- Proportion of abnormal insects and dead insects on 4 days after releasing insects (%) ([9]; insects released 7 days after treatment): 60.0%

Compound: Cc1cccc(-c2c([O-])[n+](CCCCCCCC#N)c3ccccn3c2=O)c1 [Comparative compound 1]
- mortality at 200 ppm [1]: 0%

Compound: N#CCC[n+]1c([O-])c(-c2ccccc2)c(=O)n2ccccc21 [Compound 1, 1-(2-cyanoethyl)-2-hydroxy-4-oxo-3-phenyl-4H-pyrido[1,2-a]pyrimidinium inner salt]
- mortality at 200 ppm [1]: ≥ 80%
- mortality at 0.012 ppm ([2]; 0.012 ppm): 50%
- mortality at 0.024 ppm ([2]; 0.024 ppm): 60%
- mortality at 0.049 ppm ([2]; 0.049 ppm): 70%
- mortality at 200 ppm [2]: ≥ 80%
- mortality at 200 ppm [3]: ≥ 80%

Compound: N#Cc1nn(-c2c(Cl)cc(C(F)(F)F)cc2Cl)c(N)c1[S+]([O-])C(F)(F)F (stereo not shown) [Fipronil, reference compound]
- Density index of Nilaparvata lugens [8, 10]: 0
- Density index of Nilaparvata lugens [8, 11]: 5.4
- Density index of Nilaparvata lugens [8, 12]: 56.2
- Density index of Nilaparvata lugens [8, 13]: 73.9
- Density index of Nilaparvata lugens [8, 14]: 105
- Density index of Nilaparvata lugens [8, 15]: 98.4

Compound: Cc1cccc(-c2c([O-])[n+](CCCCCC#N)c3ccccn3c2=O)c1 [Comparative compound 2]
- mortality at 50 ppm ([1]; foliar spraying): 0%
- mortality at 200 ppm [1]: 20%

Compound: N#CCCC[n+]1c([O-])c(-c2cccc(C(F)(F)F)c2)c(=O)n2ccccc21 [Comparative compound 4]
- mortality at 3.1 ppm ([1]; foliar spraying): 0%
- mortality at 12.5 ppm ([1]; foliar spraying): 75%

Compound: CC(C#N)C[n+]1c([O-])c(-c2cccc(C(F)(F)F)c2)c(=O)n2ccccc21 (stereo not shown) [Comparative compound 6]
- mortality at 12.5 ppm ([1]; foliar spraying): 50%
- mortality at 50 ppm ([1]; foliar spraying): 100%

Compound: Cc1cccc(-c2c([O-])[n+](CCCCC#N)c3ccccn3c2=O)c1 [Comparative compound 3]
- mortality at 12.5 ppm ([1]; foliar spraying): 0%
- mortality at 50 ppm ([1]; foliar spraying): 40%
- mortality at 200 ppm [1]: 100%

Compound: CC(CC#N)[n+]1c([O-])c(-c2cccc(C(F)(F)F)c2)c(=O)n2ccccc21 (stereo not shown) [Comparative compound 7]
- mortality at 200 ppm [1]: 0%

Compound: Cc1cccn2c(=O)c(-c3cc(Cl)cc(Cl)c3)c([O-])[n+](Cc3cnc(Cl)s3)c12 [Dicloromezotiaz]
- mortality at 12.5 ppm ([1]; foliar spraying): 0%
- mortality at 50 ppm ([1]; foliar spraying): 90%
- mortality at 200 ppm [1]: 100%
- mortality at 200 ppm [2]: 0%
- mortality at 200 ppm [3]: 0%
- mortality at 200 ppm ([4]; 200 ppm, root dipping of rice seedlings, larvae released after 2 days): 0%

Compound: N#CC[n+]1c([O-])c(-c2cccc(C(F)(F)F)c2)c(=O)n2ccccc21 [Comparative compound 5]
- mortality at 3.1 ppm ([1]; foliar spraying): 0%
- mortality at 12.5 ppm ([1]; foliar spraying): 10%
